Data reported in US9012481B2, “Benzoarylureido compounds, and composition for prevention or treatment of neurodegenerative brain disease containing the same” (Korea Institute of Science and Technology, priority 2009, dated 2015).
Read-outs that look alike come from different tables or passages of the source.

Assays:
[1] = system: tumor necrosis factor-alpha; assay: ELISA of tumor necrosis factor-alpha in LPS-treated BV-2 cells; format: cell-based; settings: LPS 1 μg/ml for 2 hours, then 50 nM KHG25967 for 6 hours; compared to LPS only as 100%
Method: Lipopolysaccharide (LPS)-treated cells (6-well of 5×10^5 cells/3 Ml, Fluka, Sigma-Aldrich, St. Louis, Mo., USA) were collected, and washed with phosphate-buffered saline (PBS). The cells were centrifuged, and then dissolved in pro-prep lysis buffer at 4° C. Interleukin-1 beta and tumor necrosis factor-alpha in the cell lysis solution wherein the cells were dissolved were measured by enzyme-linked immunosorbent analysis plate (R&D systems inc, Minneapolis, Minn., USA). The absorbance at 450 nm was measured using microplate reader. In addition, cytokine was measured using a cytokine measuring system (R&D systems inc, Minneapolis, Minn., USA).
BV-2 cells were pre-treated with 1 μg/ml of LPS (Fluka, Sigma-Aldrich, St. Louis, Mo., USA) for 2 hours, and then, further treated with 50 nM KHG25967 for 6 hours. The changed amounts of cytokines of tumor necrosis factor-alpha and interleukin-1beta were measured from lysate solution where the cells were dissolved in cell lysate solution (Intron Biotechnology, Seoul, Korea).

[2] = system: BV-2 cells; assay: Cell viability (MTT analysis) of beta-amyloid treated BV-2 cells; format: cell-based; settings: for viability at 0.05 µM: Mus musculus
Method: Beta-amyloid (Aβ25-35, Sigma Chemical Co., St. Louis, Mo., USA) was diluted with aseptic desalted water and preservative solution (1 mM, GIBCO), and kept in aliquots at −70° C. To the treatment of beta-amyloid, beta-amyloid preservative solution was diluted to desired concentrations in a treatment medium (DMEM, GIBCO). The reagents were newly provided as a preservative solution (10 mM) under DMSO (dimethylsulfoxide), and diluted in treatment medium to desired concentrations.
BV-2 microglia cells (allotted from Pharmacology Division of Ajou University) were cultivated in DMEM (Dulbecco's Modified Eagle's Medium) supplemented with 5% fetal bovine serum (Invitrogen, Carlsbad, Calif., USA), sou/Ml penicillin (Invitrogen, Carlsbad, Calif., USA), and 50 μg/Ml streptomycin (Invitrogen, Carlsbad, Calif., USA) under the atmosphere condition with 5% CO2 and 95% air at 37° C. The medium was replaced once a day, the cells were plate-cultured in a density according to the scale of each experiment.
BV-2 cells were plate-cultured in 96-well plate at the density of 5×10^4, the cell viability was measured according to a conventional MTT analysis method and lactate dehydrogenase (LDH) analysis method. The MTT analysis depends on the metabolism ability of mitochondria of living cell, and reflexes intracellular redox states. The cultured cells were treated with MTT a solution (final concentration: 1 mg/Ml) for 4 hours. Deep blue formazan crystal generated in the original cells was dissolved in a lysis buffer, and then, the absorbance was detected at 595 nm with microplate reader. The LDH activity released from the culture medium was detected, which was evaluated as a cell death index. The culture medium was added to a reagent (test, Sigma Chemical Co, St. Louis, Mo., USA) containing sodium lactate, NADH and sodium pyruvate, and then, the absorbance reduction by NADH at 340 nm was measured. The result was calculated assuming that the LDH activity in homogenate solution of the non-treated control is 100%.
[…] For microscope analysis, BV-2 cells were used in 6-well plate at the density of 5×10^5 cells/well, for MTT analysis, BV-2 cells were used in 96-well plate at the density of 5×10^4 cells/well.
The obtained prevention effects of KHG25967 compound on toxicity induced by beta-amyloid in BV-2 cells were FIGS. 1A and 1b.
For MTT analysis, BV-2 cells were used on 96-well plate in the density of 5×10^4 cells/well. The quantitative analysis results (unit: %) for the cell viability obtained by MTT analysis were shown in Table 2, wherein the values are represented by the average of three experiments per each concentration.

Structure (SMILES): O=C(O)CNC(=O)Nc1nc2ccccc2s1 [KHG25967, 2-(3-benzo[d]thiazole-2-ylureido)acetic acid]
- suppression of tumor necrosis factor-alpha level (FIG. 3B) [1]: 61%
- protection against nervous cell degeneration by beta-amyloid, compound pre-treated ([2]; KHG25967 pre-treated prior to the addition of beta-amyloid, similar to treatment after beta-amyloid): shows a protective effect against nervous degeneration
- viability at 0.05 µM ([2]; BV-2, 50 nM KHG25967 for 24 hours after 50 μM beta-amyloid for 2 hours, beta-amyloid only control 35%, read-out: cell viability (FIG. 1B, MTT analysis)): 83%
- viability at 0.05 µM ([2]; compound 50 nM for 24 hours after 50 μM beta-amyloid for 2 hours, BV-2 cells, average of three experiments, read-out: cell viability by MTT analysis): 83%
